The values that follow come from a melting point compilation (Tetko et al.; mined from patent text by program, amines drawn as free bases though some values may be those of a salt).

Take `COc1cc(CC(C#N)=CN2CCOCC2)cc(OC)c1N`: the melting point (as a rule, the temperature, or range, at which the solid turns liquid) lay within 128 to 129 °C. `Nc1nc2ccccc2c2c1nc(CCO)n2CC1(O)CCOCC1` came in with a melting point of 237 to 238 °C. The result for `Cc1c(C(F)(F)F)noc1NS(=O)(=O)c1ccc(-c2ccccc2)cc1` reads 139 to 140 °C.

As to `O=c1ccn(-c2ccc3[nH]c(=O)c(=O)[nH]c3c2)cc1`, the melting point was more than 300 °C. With `COC(=O)C(=O)c1ccc(OCOc2ccccc2)cc1` the figure was 52 to 54 °C. The result for `CC1CC(=O)c2cc(OCc3ccc4ccccc4n3)cnc2C1` (stereo unspecified) reads 141 to 144 °C; that for `CCSc1c(Cl)c(C(=O)O)c(C(O)=NC)c(Cl)c1SCC`, 154 to 155 °C. The result for `Cc1cccc2c(=O)cc(C(=O)Nc3ccc(CC4SC(=O)NC4=O)cc3)oc12` (stereo unspecified) reads 305 to 307 °C; that for `CCc1nc2c(N)nc(C)c(C)c2n1CCOCCN1CCCS1(=O)=O`, 157 to 159 °C. Consider `N#CCN1C(=O)C2(COc3cc4c(cc32)OCCO4)c2ccccc21` (stereo unspecified), for which the melting point was in the range of 161 to 162 °C.

In turn, `COc1cc2c(cc1OC)C(C(S)(C#N)c1ccc(Cl)cc1)=NCC2` (stereo unspecified) displayed a melting point of 135 to 136 °C.

With `CCCCNC(=O)C(=O)Nc1ccc(OC)cc1N`, the melting point was 180 to 181 °C. With `CCCCOc1cc(CCC(=O)O)n(Cc2ccc(C(F)(F)F)cc2)n1` the figure was 116 to 118 °C.

Take `CC(=O)SCCC(=O)[C@@H]1CCCC[C@H]1C(=O)O` (relative stereo): the melting point lay within 65 to 68 °C.

`COc1ccc2cccc(C(O)CNC(C)=O)c2c1` (stereo unspecified) had a melting point of 173 to 175 °C. On to `COC(=O)[C@@H](NS(=O)(=O)c1ccc(Br)cc1)C(C)C`, for which the melting point is 88 to 90 °C. `CCN(CC)c1ccc2cc(C(=O)O)c(=O)oc2c1` returned a melting point of 227 to 229 °C.

For the compound `N#Cc1cc(N)ccc1NC(=O)c1ccc(N)cc1`, the melting point fell in the range of 242 to 244 °C. With `CC(=O)NCCc1coc2ccc3c(c12)CCCO3` the figure was 162 °C. The result for `CC1CC(=O)NN=C1c1ccc(NC(=O)Oc2ccc([N+](=O)[O-])cc2)cc1` (stereo unspecified) reads 177 to 178 °C. With `Cc1cc(C#N)cnc1N` the figure was 198 to 200 °C; with `CC(C(SC(=S)N(C)C)c1ccccc1)[N+](=O)[O-]` (stereo unspecified), 92 to 94 °C. For the compound `OC1C(COC2CC2)OC(n2cnc3c(NCc4cccc(I)c4)ncnc32)C1O` (stereo unspecified), the melting point was in the range of 110 to 112 °C.

In the case of `CN(Cc1ccc(NC(=O)C2=Cc3cc(-c4ccc5c(c4)CCCO5)ccc3S(=O)(=O)CC2)cc1)C1CCOCC1`, the melting point lay within 245 to 249 °C.

In the case of `CNc1c(F)ccc(-n2cc(C(=O)O)c(=O)c3cc(F)c(NC)c(Cl)c32)c1F`, the melting point was 245 to 248 °C. With `COc1cc(C(=O)O)c2oc(-c3ccc(OC)c(F)c3)cc2c1` the figure was 254 to 256 °C. Compound `Cc1nn(-c2ccccn2)c2nc3cc(F)c(F)cc3c(Cl)c12` displayed a melting point of 175 to 176 °C.

`CC1(C)Nc2cccc3cccc(c23)N1` yielded a melting point of 114 to 115 °C.

`Cc1cc(C)cc(NC(=O)NC2N=C(c3ccccc3)c3ccccc3N(C)C2=O)c1` (stereo unspecified) returned a melting point of 267 to 269 °C.

Turning to `CC(=O)c1ccc(Nc2cccc(-c3cccnc3)c2)c(N)c1`, the melting point was 175 to 176 °C. The result for `O=C(O)C(=O)c1ccc(OCCOc2ccnc3ccccc23)cc1` reads 271 °C; that for `Cc1c(C)n(C2CC2)c2c(OCc3ccccc3)nncc12`, 121 to 122 °C.

In turn, `O=C(OC1CCCCC1)c1ncn2c1[C@@H]1CCCN1C(=O)c1c(Cl)cccc1-2` gave a melting point of 166 to 167 °C. In turn, `N#CC1=Nc2ccc(Cl)cc2Oc2ccccc21` returned a melting point of 185 to 188 °C. The result for `Oc1ccc(CN2CC=CCC2)cc1O` reads more than 300 °C; that for `COC(=O)N[C@@H]1CN2C(=O)N(c3cc(Cl)nc(Cl)c3)C(=O)[C@@]2(Cc2ccc(OC(F)(F)F)cc2)C1`, 120 °C; that for `COc1cccc(C=Cc2nc3c(s2)N(C(C)=O)CCC3)c1OC`, 185 to 187 °C. As to `Cc1ccc(Cc2cnc(NCCCCc3cc(CN(C)C)ccn3)[nH]c2=O)cn1`, the melting point was 135 to 137 °C.

As for `CCCNC(=O)CCC(C)C1CCC2C3C(OC(C)=O)CC4CC(OO)(OO)CCC4(C)C3CC(OC(C)=O)C12C` (stereo unspecified), the melting point is 120 to 129 °C. `COc1nc(OC)nc(-n2cnc(S(C)(=O)=O)n2)n1` yielded a melting point of 170 °C.

As for `CCCCOc1c(CO)n(CC(C)C)c(=O)c2ccc(OCc3ccccc3)cc12`, the melting point is 90 to 91 °C.

`CS(=O)(=O)Nc1cc2occc(=O)c2cc1Oc1ccccc1`: the melting point lay in the range of 217 to 218 °C.

Regarding `Nc1ccccc1C(=O)/C=C/c1nccn1C(c1ccccc1)(c1ccccc1)c1ccccc1`, the melting point lay in the range of 142 to 144 °C. With `O=C(O)C1=Cc2cc(Oc3ccccc3)ccc2OC1C(F)(F)F` (stereo unspecified) the figure was 185 to 186 °C; with `CC(NC(=O)C(C)(C)CCl)c1ccc(Cl)cc1` (stereo unspecified), 95 to 96 °C; with `C=CCCC(C#N)(C#N)Cc1ccc(OCC=C)cc1`, 77.7 °C. On to `c1ccc(N2c3ccccc3Sc3ccccc32)cc1`, for which the melting point fell in the range of 93 to 94 °C. With `Cc1cc(-c2cnn3c(C(F)(F)F)cc(-c4ccc(C(F)(F)F)cc4)nc23)cc(C)n1`, the melting point came out at 257 °C. The result for `CNc1c(OCCN(Cc2ccccc2)C(=O)OC(C)(C)C)cccc1[N+](=O)[O-]` reads 91 to 93 °C. Consider `O=Cc1cc([N+](=O)[O-])ccc1OC/C=C/CCl`, for which the melting point was in the range of 65 to 66 °C. With `CCCCn1ccc(-c2ccc(Oc3ccnc(C)c3)c(F)c2)c(C#N)c1=O` the figure was 125 °C; with `CC1=C2OCOC2CC(C)(C)C1(O)C[Si](C)(C)C` (stereo unspecified), 63 to 64.5 °C; with `CP1(=O)c2ccccc2CN1c1ccccc1` (stereo unspecified), 94 to 97 °C. `CC(CC(=O)O)C(=O)c1ccc(O)cc1` (stereo unspecified) displayed a melting point of 122 to 126 °C. With `Cc1nn(-c2cc([N+](=O)[O-])c(Cl)cc2F)c(Cl)c1Br` the figure was 135 to 137 °C; with `Cc1c2c(cn1C)CN=C(c1ccccc1Cl)c1cc(Cl)ccc1-2`, 200 to 202 °C; with `CCC(CC)n1cc(C#N)nc(N2CCc3cc(Cl)cc(Cl)c32)c1=O`, 197 to 199 °C. In the case of `Nc1nc2cc3c(cc2s1)OCO3`, the melting point came out at 200 °C. With `Cc1ccncc1C(O)c1ccc2cc(CO)ccc2c1` (stereo unspecified) the figure was 151 to 153 °C; with `CSc1nn(-c2c(Cl)cc(C(F)(F)F)cc2Cl)c(N)c1C(=O)c1cc(C)ccc1C`, 130 to 132 °C; with `CC12CC3CC(C1)CC(CNC(=O)n1cc(F)c(=O)[nH]c1=O)(C3)C2`, 172 °C. The result for `NS(=O)(=O)c1ccc(-n2nc(C(F)(F)F)cc2-c2ccc(-c3ccco3)cc2)cc1F` reads 151 °C; that for `CCOC(=O)c1c(Cn2cnc3ccccc32)nc2cc(OC)c(OC)cc2c1-c1ccc(OC)c(OC)c1`, 99 to 100 °C; that for `O=C1c2cccc3cccc(c23)C(=O)N1CCCCCBr`, 113 to 115 °C. As to `CCN(CC)C(=O)n1cnc(S(=O)(=O)CC2CCCCCC2)n1`, the melting point was 46 to 51 °C. In turn, `CCOC(=O)N1CCCC2(OCCO2)C1Cc1c[nH]c2ccccc12` (stereo unspecified) registered a melting point of 122 to 125 °C.

In the case of `CC(C)NC(=O)C1OC1c1ccccc1` (stereo unspecified), the melting point lay in the range of 114 to 115 °C. The result for `Fc1ccccc1NC(=S)N1CCN(c2cnccn2)CC1` reads 151 to 153 °C; that for `Cc1cc(F)ccc1Nc1nc(N(C)c2ccccc2)c2cc(OCCN(C)C)ccc2n1`, 112 to 114 °C. The compound `Cc1ccc2[nH]c(-c3ccccc3)c(CCN3CCCCC3)c2c1` had a melting point of 163 to 164 °C. As to `CCOC(=O)c1ccc(-c2nc(COc3ccc(COc4nn(-c5ccccc5)cc4/C=C\c4csc(CC)n4)cc3OC)c(C)o2)s1`, the melting point was in the range of 118 to 119 °C. For the compound `CCC(=O)Nc1cnc2ccccc2c1Cl`, the melting point was 151 to 152 °C. On to `CC(C)(C)CC(C)(C)NSc1nc2ccccc2s1`, for which the melting point came out at 104 °C. With `NC(=O)c1ccc(F)c2c1CC(N(CCCCc1c[nH]c3ccc(F)cc13)CC1CC1)CO2` (stereo unspecified) the figure was 115 °C; with `COc1cc(-c2ncnc(C)c2Cl)c(F)cc1Cl`, 136 to 140 °C; with `C#CCOc1ccc(C(=O)OC)c(OC)c1`, 88 °C. On to `Cc1nc2ccc(Nc3nccc(-c4ccc(N5CCNCC5)nc4)n3)cc2[nH]1`, for which the melting point lay within 245 to 250 °C. With `CCNc1nc(Nc2ccccc2)ncc1CCC(=O)OCC` the figure was 106 to 107 °C. With `CC12CCC3C(CC(Cl)C4(O)CC=CCC34C)C1CC=C2Br` (stereo unspecified) the figure was 125 to 126 °C; with `CCCO[C@@H]1C[C@@H](C(=O)NC)N(S(=O)(=O)c2ccc(Cl)c(CBr)c2Cl)C1`, 62 °C; with `COC(=O)/C=C/n1cnc2ccc(SC)cc2c1=O`, 170 °C. Consider `O=C(O)C1=Cc2cc(Cl)cc(CO)c2OC1C(F)(F)F` (stereo unspecified), for which the melting point lay in the range of 175 to 179 °C. With `Cc1cc(N(C)Cc2ccc(-c3ccc(OC(F)(F)F)cc3)nc2)ccc1OCC(=O)O` the figure was 137 to 138 °C. With `COC(=O)Nc1nc2ccc(Oc3ccncc3)cc2[nH]1` the figure was 220 to 224 °C; with `CC(=Cc1ccc2ccccc2c1)c1ccc(C(=O)O)cc1`, 238 °C; with `O=C(O)C1c2ccccc2COc2ccc(I)cc21` (stereo unspecified), 191 to 192 °C.

As for `Cc1oc(CCOc2ccc(CC3SC(=N)NC3=O)cc2)nc1CC(C)C` (stereo unspecified), the melting point was 167 to 168 °C.

`Cn1cncc1C(O)(c1ccc(Cl)cc1)c1ccc2c(c1)c(-c1nc(-c3ccccc3)cs1)cc(=O)n2C` (stereo unspecified) showed a melting point of 200 °C. On to `O=c1oc(C(F)F)nc2c(C(F)(F)F)cccc12`, for which the melting point stood at 82 °C. In turn, `COc1ccc(C=CC(=O)c2c(OC)cc(OC)cc2OC(C)=O)cc1` yielded a melting point of 105 to 107 °C. With `O=C(CCC1CCCCC1)NC1N=C(C2CCCCC2)c2ccccc2NC1=O` (stereo unspecified) the figure was 133 to 138 °C.
